Experimental data published in patent publication US20210085640A1, “ACYLATED CATECHIN POLYPHENOLS AND METHODS OF THEIR USE FOR THE TREATMENT OF CANCER” (Flagship Pioneering Innovations V, Inc., priority 2018, published 2021).

What was measured:
Assay type in all cases: cell-based
[1] = Human Regulatory T Cell Differentiation Assay; conditions: human, primary naïve CD4+ T cells isolated from PBMCs, read-out: Cell viability % DMSO
Procedure: Peripheral blood mononuclear cells (PBMCs) from whole blood donated by health volunteers were separated by Ficoll-Paque gradient centrifugation and naïve CD4^+ T cells were subsequently isolated using magnet beads (EasySep™ Human Naïve CD4^+ T Cell Isolation Kit, Cambridge, Mass.). For regulatory T cell (Treg) differentiation assay, naïve CD4^+ T cells were cultured (1-10×10^4 cells) in CTS OpTmizer medium for 6 days and stimulated with 5 ng/ml TGF-β, 100 U/ml IL-2, and ImmunoCult™ Human […] T Cell Activator; Stemcell #10990) with/without Compounds. Cell viability was determined using a viability dye (eBioscience Fixable Viability Dye eFluor 780: ThermoFisher 65-0865-14) at 1:500 dilution. The cells were gated for Treg, defined as Live, CD11c^−, CD14^−, CD19^−, CD8^−, CD4^+, CD3^+, CD25^+, FOXP3^+. Percent (%) Tregs were calculated as percentage of CD4^+, CD25^+, FOXP3^+ cells over total CD4^+ T cells. Statistical analysis was performed with GraphPad Prism Software Using One-Way ANOVA.

[2] = tested on: HCT 116 colorectal cancer cells; experiment: Cancer cell survival (CellTiter-Glo), HCT 116; conditions: Homo sapiens, HCT 116 cells, 72 h, read-out: Cell survival at given concentration
Method in brief: (§1)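 Cells seeded at 4×10^3 cells/well, incubated overnight, then treated in triplicate at nine concentrations for 72 h at 37 C, 5% CO2. Viability by CellTiter-Glo luminescence, survival % normalized to untreated and medium controls; IC50 derived.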

[3] = tested on: Daudi lymphoma cancer cells; experiment: Cancer cell survival (CellTiter-Glo), Daudi; conditions: Homo sapiens, 72 h, read-out: Cell survival at given concentration
Method in brief: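 Daudi cells (4×10^3/well) were exposed for 72 h at 37 °C to nine concentrations of compound, added as 10× solutions spanning 1 μM–10 mM (fatty acids) or 100 nM–1 mM (others). CellTiter-Glo luminescence gave % survival versus untreated, medium-blank corrected; IC50 derived.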

T24 bladder cancer cells = experiment: Cancer cell survival (CellTiter-Glo), T24; conditions: Homo sapiens, 72 h, read-out: Cell survival at given concentration
Method in brief: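 T24 cells seeded at 4×10^3 cells/well overnight, then exposed 72 h at 37 C, 5% CO2 to nine concentrations in triplicate. Survival measured by CellTiter-Glo luminescence relative to untreated and medium controls; IC50 derived.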

MCF7 breast cancer cells = experiment: Cancer cell survival (CellTiter-Glo), MCF7; conditions: Homo sapiens, 72 h, read-out: Cell survival at given concentration
Method in brief: as §1

A-431 skin cancer cells = experiment: Cancer cell survival (CellTiter-Glo), A-431; conditions: Homo sapiens, A-431 cells, 72 h, read-out: Cell survival at given concentration
Method in brief: as §1

[4] = tested on: PC-3 prostate cancer cells; experiment: Cancer cell survival (CellTiter-Glo), PC-3; conditions: Homo sapiens, PC-3 cells, 72 h, read-out: Cell survival at given concentration
Method in brief: as §1

AGS stomach cancer cells = experiment: Cancer cell survival (CellTiter-Glo), AGS; conditions: 72 h
Method in brief: as §1

A549 lung cancer cells = experiment: Cancer cell survival (CellTiter-Glo), A549; conditions: Homo sapiens, 72 h, read-out: Cell survival at given concentration
Method in brief: as §1

Structure (SMILES): O=C[C@H](O)[C@@H](O)[C@@H](O)CO [L-arabinose]
- viability at 6 days, 0.5 mM ([1]; 0.5 mM): 90 to 110%
- viability at 6 days, 1 mM ([1]; 1 mM): 90 to 110%
- viability at 0.101 µM ([2]; 101 nM): 101%
- viability at 0.318 µM ([2]; 318 nM): 101%
- viability at 1 µM ([2]; 1 μM): 101%
- viability at 3 µM ([2]; 3 μM): 103%
- viability at 10 µM ([2]; 10 μM): 103%
- viability at 32 µM ([2]; 32 μM): 104%
- viability at 100 µM ([2]; 100 μM): 104%
- viability at 316 µM ([2]; 316 μM): 102%
- viability at 1000 µM ([2]; 1000 μM): 99%
- viability at 0.101 µM ([3]; 101 nM): 100%
- viability at 0.318 µM ([3]; 318 nM): 100%
- viability at 1 µM ([3]; 1 μM): 100%
- viability at 3 µM ([3]; 3 μM): 99%
- viability at 10 µM ([3]; 10 μM): 102%
- viability at 32 µM ([3]; 32 μM): 102%
- viability at 100 µM ([3]; 100 μM): 103%
- viability at 316 µM ([3]; 316 μM): 102%
- viability at 1000 µM ([3]; 1000 μM): 102%
- viability at 0.101 µM (T24 bladder cancer cells; T-24, 101 nM): 100%
- viability at 0.318 µM (T24 bladder cancer cells; T-24, 318 nM): 103%
- viability at 1 µM (T24 bladder cancer cells; T-24, 1 μM): 100%
- viability at 3 µM (T24 bladder cancer cells; T-24, 3 μM): 103%
- viability at 10 µM (T24 bladder cancer cells; T-24, 10 μM): 102%
- viability at 32 µM (T24 bladder cancer cells; T-24, 32 μM): 105%
- viability at 100 µM (T24 bladder cancer cells; T-24, 100 μM): 101%
- viability at 316 µM (T24 bladder cancer cells; T-24, 316 μM): 101%
- viability at 1000 µM (T24 bladder cancer cells; T-24, 1000 μM): 104%
- viability at 0.101 µM (MCF7 breast cancer cells; 101 nM): 99%
- viability at 0.318 µM (MCF7 breast cancer cells; 318 nM): 101%
- viability at 1 µM (MCF7 breast cancer cells; 1 μM): 98%
- viability at 3 µM (MCF7 breast cancer cells; 3 μM): 101%
- viability at 10 µM (MCF7 breast cancer cells; 10 μM): 99%
- viability at 32 µM (MCF7 breast cancer cells; 32 μM): 101%
- viability at 100 µM (MCF7 breast cancer cells; 100 μM): 99%
- viability at 316 µM (MCF7 breast cancer cells; 316 μM): 98%
- viability at 1000 µM (MCF7 breast cancer cells; 1000 μM): 98%
- viability at 0.101 µM (A-431 skin cancer cells; 101 nM): 103%
- viability at 0.318 µM (A-431 skin cancer cells; 318 nM): 102%
- viability at 1 µM (A-431 skin cancer cells; 1 μM): 102%
- viability at 3 µM (A-431 skin cancer cells; 3 μM): 103%
- viability at 10 µM (A-431 skin cancer cells; 10 μM): 103%
- viability at 32 µM (A-431 skin cancer cells; 32 μM): 105%
- viability at 100 µM (A-431 skin cancer cells; 100 μM): 105%
- viability at 316 µM (A-431 skin cancer cells; 316 μM): 105%
- viability at 1000 µM (A-431 skin cancer cells; 1000 μM): 102%
- viability at 0.101 µM ([4]; 101 nM): 103%
- viability at 0.318 µM ([4]; 318 nM): 100%
- viability at 1 µM ([4]; 1 μM): 100%
- viability at 3 µM ([4]; 3 μM): 101%
- viability at 10 µM ([4]; 10 μM): 103%
- viability at 32 µM ([4]; 32 μM): 101%
- viability at 100 µM ([4]; 100 μM): 100%
- viability at 316 µM ([4]; 316 μM): 101%
- viability at 1000 µM ([4]; 1000 μM): 100%
- viability at 0.101 µM (AGS stomach cancer cells; 101 nM, read-out: Cell survival at given concentration): 100%
- viability at 0.318 µM (AGS stomach cancer cells; 318 nM, read-out: Cell survival at given concentration): 102%
- viability at 1 µM (AGS stomach cancer cells; 1 μM, Table 10.1, read-out: Cell survival at given concentration): 101%
- viability at 3 µM (AGS stomach cancer cells; 3 μM, Table 10.1, read-out: Cell survival at given concentration): 102%
- viability at 10 µM (AGS stomach cancer cells; 10 μM, Table 10.1, read-out: Cell survival at given concentration): 102%
- viability at 32 µM (AGS stomach cancer cells; 32 μM, Table 10.1, read-out: Cell survival at given concentration): 104%
- viability at 100 µM (AGS stomach cancer cells; 100 μM, Table 10.1, read-out: Cell survival at given concentration): 105%
- viability at 316 µM (AGS stomach cancer cells; 316 μM, read-out: Cell survival at given concentration): 102%
- viability at 1000 µM (AGS stomach cancer cells; 1000 μM, read-out: Cell survival at given concentration): 101%
- viability at 0.101 µM (A549 lung cancer cells; 101 nM): 101%
- viability at 0.318 µM (A549 lung cancer cells; 318 nM): 103%
- viability at 1 µM (A549 lung cancer cells; 1 μM): 104%
- viability at 3 µM (A549 lung cancer cells; 3 μM): 102%
- viability at 10 µM (A549 lung cancer cells; 10 μM): 103%
- viability at 32 µM (A549 lung cancer cells; 32 μM): 103%
- viability at 100 µM (A549 lung cancer cells; 100 μM): 102%
- viability at 316 µM (A549 lung cancer cells; 316 μM): 102%
- viability at 1000 µM (A549 lung cancer cells; 1000 μM): 104%
